This passage reports T.vaginalis_%inb_Rep1 and T.vaginalis_%inb_Rep2 results from publication PMC7897990, “TriTOX: A novel Trichomonas vaginalis assay platform for high-throughput screening of compound libraries” (International Journal for Parasitology: Drugs and Drug …, 2021).

The assay deals with Trichomonas vaginalis G3 trophozoites.
The mark [1] stands for this setting: HTS replicate 1, parasite screen 1 µg/mL.
Setting [2] is: HTS replicate 2, parasite screen 1 µg/mL.

Like-named read-outs stand apart in the source and are kept apart here. Starred links: 1 amine or outer side, 2 acyl side, 3 side chain; linkers in the order of their positions; H or OH if unused. Positions of bridges follow the written chain, without caps; N, C: chain ends. Non-standard residues stand in square brackets, D forms with d. Residues, ends and D or L forms follow the SMILES beside them. *: point of attachment. Orn(4R-OH,5R-OH) = O=C([C@H](C[C@@H](O)[C@@H](O)N[*:3])N[*:1])[*:2]; Tetradecanoyl(10R,12S-Me2) = CC[C@H](C)C[C@H](C)CCCCCCCCC(=O)*; hTyr(3S-OH,4S-OH) = N[C@H](C(=O)O)[C@H](O)[C@@H](O)c1ccc(O)cc1; Gln(3R-OH) = NC(=O)C[C@@H](O)[C@H](N)C(=O)O; Pro(3S-OH) = O=C(O)[C@H]1NCC[C@@H]1O; d(aThr) = C[C@@H](O)[C@@H](N)C(=O)O; Hyp = O=C(O)[C@@H]1C[C@@H](O)CN1; X1 = CCCCCCCCCCCC(O)CC(=O)*

On to `C=C[C@]1(C)C[C@@H](O)[C@]2(C)[C@H](C)CC[C@]3(CCC(=O)[C@H]32)[C@@H](C)[C@@H]1O` [Mutilin], for which the T.vaginalis_%inb_Rep1 under setting [1] came out at 12.02%. The molecule also showed a T.vaginalis_%inb_Rep2 under setting [2] of 13.21%.
The like results for `CC[C@H](C)[C@@H]1OC(=O)C(C)(C)[C@@H](O)[C@@H](Cc2ccccc2)OC(=O)[C@H](C(C)C)OC(=O)[C@@H](NC(=O)c2cccc(NC=O)c2O)[C@H](C)OC1=O` [Neoantimycin] were, in that order, 13.59% and 11.67%.
Under setting [1], `C/C=C(\C)c1c(Cl)c(OC)c(C)c2c1Oc1c(Cl)c(O)c(Cl)c(C)c1C(=O)O2` [Nidulin] had a T.vaginalis_%inb_Rep1 of 13.95%. Moreover, under setting [2], the T.vaginalis_%inb_Rep2 is 15.46%.
Take `CC1=C[C@H]2O[C@@H]3[C@H](O)[C@@H](O)[C@](C)([C@@]2(CO)[C@H](O)C1=O)[C@]31CO1` [Nivalenol]: the T.vaginalis_%inb_Rep1 worked out at 9.96% and the T.vaginalis_%inb_Rep2 worked out at 14.26%.
As for `Cc1cc(=O)n2c3c(c4c(cc13)c(CO)cc(=O)n4C)OC2` [Nybomycin], the T.vaginalis_%inb_Rep1 under setting [1] was found to be 11.05%. Further, under setting [2], the T.vaginalis_%inb_Rep2 is on record as 10.26%.
Under setting [1], `C[C@@H]1[C@H](O)[C@@H](C)/C=C/C=C/CC/C=C/C=C/C=C/C=C/[C@H](O[C@@H]2O[C@H](C)[C@@H](O)[C@H](N)[C@@H]2O)C[C@@H]2O[C@](O)(C[C@@H](O)[C@H](O)CC[C@@H](O)C[C@@H](O)C[C@@H](O)CC(=O)O[C@H]1C)C[C@H](O)[C@H]2C(=O)O` [Nystatin A1] had a T.vaginalis_%inb_Rep1 of 11.66%. The T.vaginalis_%inb_Rep2 under setting [2] is on record as 11.87%.
The like results for `CCCCCCCCCCCC(O)CC(=O)N[C@@H](CC(C)C)C(=O)N[C@H](CCC(=O)O)C(=O)N[C@H]1C(=O)N[C@H](C(C)C)C(=O)N[C@@H](CC(C)C)C(=O)N[C@H](CO)C(=O)N[C@@H](CC(C)C)C(=O)N[C@@H](CC(C)C)C(=O)N[C@H](CO)C(=O)N[C@@H](C(C)C)C(=O)O[C@@H]1C` (some centres unmarked) [Orfamide B] (X1-L[dE][d(aThr)][dV]L[dS]LL[dS]V; ester 3-C) were, in that order, 16.23% and 12.19%.
The like results for `Cc1ccc2c(c1O)C(=O)c1c(cc(O)c(C(=O)O)c1C)[C@]2(C)OO[C@@]1(C)c2cc(O)c(C(=O)O)c(C)c2C(=O)c2c1ccc(C)c2O` [Oxanthromicin, (+)] were, in that order, 15.31% and 5.45%.
On the same counts, the results for `COc1cc(O)c2c(c1)/C=C/CC(O)C(O)C(=O)/C=C/CC(C)OC2=O` (centres unmarked) [Oxozeaenol, (5E)-7-] are 8.42% and 13.66%.
As to `NC(=O)c1cccc2nc3ccccc3nc12` [Oxychloroaphine], the T.vaginalis_%inb_Rep1 under setting [1] is given as 11.41%. The T.vaginalis_%inb_Rep2 under setting [2] worked out at 13.92%.
On the same counts, the results for `COCC(=O)N[C@@H](C(=O)N1NCCC[C@H]1C(=O)N[C@@H](Cc1ccccc1)[C@@H](O)[C@H](C)C(=O)N[C@H]1CCN(C(N)=O)C1=O)[C@H](O)C(C)C` [Padanamide A] are 15.72% and 10.52%.
The like results for `CCC/C=C/C=C/[C@@H]1C[C@@H](O)[C@@H](O)C(=O)[C@H]1CO` [Palitantin] were, in that order, 13.59% and 14.56%.
`COc1ccc([C@@]2(O)c3c(ccc(/C=C/[C@]4(C)CCC(C)(C)CO4)c3O)NC(=O)[C@@H]2OC)cc1` [Penigequinolone A] showed a T.vaginalis_%inb_Rep1 under setting [1] of 16.23%. Moreover, the T.vaginalis_%inb_Rep2 under setting [2] was 11.87%.
On the same counts, the results for `CCCC[C@H](O)[C@@H]1CC(OC)=CC(=O)O1` [Pestalotin] are 11.05% and 11.16%.
The like results for `COc1c(OC)c(-c2c[nH]c3ccc(O)cc23)c(OC)c(OC)c1-c1c[nH]c2ccccc12` [Petromurin C] were, in that order, 7.91% and 12.64%.
Molecule `C[C@@H](O)CCCCCCCCCCCCCc1cc(O)cc(O)c1C(=O)O` [Phanerosporic acid] had a T.vaginalis_%inb_Rep1 under setting [1] of 18.46%. In addition, the T.vaginalis_%inb_Rep2 under setting [2] came to 9.81%.
`C/C=C\C=C\[C@@H]1O[C@](O)([C@H](CO[C@H]2C[C@@H](OC)[C@@H](O[C@@H]3C[C@@H](OC)[C@@H](O[C@H]4C[C@H](OC)[C@H](O)[C@H](C)O4)[C@H](C)O3)[C@@H](C)O2)C(=O)NC/C=C/C=C(\C)[C@@H](OC)[C@H](C)[C@H]2C[C@H](O)[C@H](/C=C/C=C/C=C/C(=O)O)O2)[C@H](OC(=O)Cc2ccccc2)[C@H](O)C1(C)C` [Phenelfamycin E] came in with a T.vaginalis_%inb_Rep1 under setting [1] of 11.16%. Under setting [2], the T.vaginalis_%inb_Rep2 is recorded as 10.07%.
On the same counts, the results for `CC(=O)OC[C@@]1(C)[C@@H]2C[C@H](OC(C)=O)[C@@]3(C)Oc4cc(-c5ccccc5)oc(=O)c4[C@H](O)[C@@H]3[C@@]2(C)CC[C@@H]1OC(C)=O` [Phenylpyropene A] are 13.03% and 14.11%.
Under setting [1], `Cc1ncc(-c2c[nH]c3ccccc23)o1` [Pimprinine] showed a T.vaginalis_%inb_Rep1 of 11.61%. The molecule further yielded a T.vaginalis_%inb_Rep2 under setting [2] of 11.80%.
Under setting [1], `CN(C)C1C(=O)C(C(=O)NCN2CCN(CCO)CC2)=C(O)C2(O)C(=O)C3=C(O)c4c(O)cccc4C(C)(O)C3CC12` (centres unmarked) [Pipacycline] came in with a T.vaginalis_%inb_Rep1 of 11.66%. For the same molecule, the T.vaginalis_%inb_Rep2 under setting [2] was found to be 12.19%.
On to `Cn1c(=O)c(=Cc2ccccc2)[nH]c(=O)c1=Cc1ccccc1` [Piperafizine A], for which the T.vaginalis_%inb_Rep1 under setting [1] was 11.87%. Under setting [2], this molecule gave a T.vaginalis_%inb_Rep2 of 11.10%.
The like results for `CC[C@@H]1CCN[C@H](C(=O)N[C@@H]([C@H]2O[C@H](SC)[C@H](O)[C@@H](O)[C@H]2O)[C@H](C)Cl)C1` [Pirlimycin] were, in that order, 5.02% and 5.77%.
Molecule `COc1cc(CC2C(=O)OCC2Cc2ccc3c(c2)OCO3)ccc1O` (centres unmarked) [Pluviatolide] had a T.vaginalis_%inb_Rep1 under setting [1] of 12.12%. Under setting [2], this molecule had a T.vaginalis_%inb_Rep2 of 14.37%.
Under setting [1], `CC[C@H](C)C[C@H](C)CCCCCCCCC(=O)N[C@H]1C[C@@H](O)[C@@H](O)NC(=O)[C@@H]2[C@@H](O)CCN2C(=O)[C@H]([C@H](O)CC(N)=O)NC(=O)[C@H]([C@H](O)[C@@H](O)c2ccc(O)cc2)NC(=O)[C@@H]2C[C@@H](O)CN2C(=O)[C@H]([C@@H](C)O)NC1=O` [Pneumocandin B0] ({Tetradecanoyl(10R,12S-Me2)}-[Orn(4R-OH,5R-OH)]T[Hyp][hTyr(3S-OH,4S-OH)][Gln(3R-OH)][Pro(3S-OH)]; lactam 1-C) registered a T.vaginalis_%inb_Rep1 of 10.50%. Moreover, under setting [2], the T.vaginalis_%inb_Rep2 was 8.92%.
The like results for `CCC(O)C(C)(O)C1OC(=O)C(C)C(OC2CC(C)(OC)C(O)C(C)O2)C(C)C(OC2OC(C)CC(N(C)C)C2O)C2(C)CC(C)=C(O2)C1C` (centres unmarked) [Pseudoerythromycin A enol ether] were, in that order, 13.84% and 5.58%.
The like results for `CN1CCC2(c3cccc4c3NC3N(C)CCC43c3cccc4c3NC3N(C)CCC43C34CCN(C)C3Nc3c(C56CCN(C)C5Nc5ccccc56)cccc34)c3ccccc3NC12` (centres unmarked) [Psychotridine] were, in that order, 9.23% and 6.15%.
The like results for `O=c1c2cccn2c(=O)c2cccn12` [Pyrocoll] were, in that order, 15.47% and 11.29%.
Consider `Nc1cc2nc3ccccc3oc-2cc1=O` [Questiomycin A], for which, under setting [1], the T.vaginalis_%inb_Rep1 is 16.02%. The molecule further gave a T.vaginalis_%inb_Rep2 under setting [2] of 12.32%.
